Earlier results as cited in US20100247649A1, “PHARMACEUTICAL FORMULATIONS COMPRISING TELMISARTAN AND HYDROCHLOROTHIAZIDE” (DR. REDDY'S LABORATORIES LTD., priority 2007, published 2010).

Row | Stability in alkaline conditions (alkaline conditions) | Aqueous solubility in the physiological pH range of the gastrointestinal tract (between pH 1 and 7) | Solubility in hydrochloric acid (hydrochloric acid) | Solubility in the pH range of 3 to 9 (pH range of 3 to 9) | Solubility in strong acids (strong acids (except hydrochloric acid)) | Solubility in strong bases (strong bases) | Solubility in water (water) | SMILES
1 | degrades | – | – | – | – | – | – | NS(=O)(=O)c1cc2c(cc1Cl)NCNS2(=O)=O [Hydrochlorothiazide, 6-chloro-3,4-dihydro-2H-1,2,4-benzothiadiazine-7-sulfonamide 1,1-dioxide]
2 | – | very poor | insoluble | practically insoluble | sparingly soluble | soluble | practically insoluble | CCCc1nc2c(C)cc(-c3nc4ccccc4n3C)cc2n1Cc1ccc(-c2ccccc2C(=O)O)cc1 [Telmisartan, 4′-[(1,4′-dimethyl-2′-propyl[2,6′-bi-1H-benzimidazol]-1′-yl)methyl]-[1,1′-biphenyl]-2-carboxylic acid]
